# Reference: publication PMC3207847, “Characterization of a Novel Type of HIV-1 Particle Assembly Inhibitor Using a Quantitative Luciferase-Vpr Packaging-Based Assay” (PLoS ONE, 2011)
# Where two headings read alike, the source gives them in different places.
# Experiments:
# HIV-1 VLP assembly = test: microbe, parasite or virus in culture; settings: for IC50: Human immunodeficiency virus 1, 24 h; for SI (ratio CC50:IC50): selectivity index
# Method: Cell culture medium was then harvested at 48 h pi, subjected to the 2-step ultracentrifugation analysis, and each gradient fraction probed for Gag polyprotein and luciferase activity, as above. […] The gradient fractions corresponding to the peak of luciferase activity were pooled, and the VLP contained in these fractions were pelleted, lysed and assayed for luciferase content.
# Drug treatment was maintained for a further 24 h, and VLP released in the cell culture medium were pelleted through a sucrose cushion. The amounts of extracellular VLP recovered in the 48 h-pellets obtained in the presence of the different inhibitors were determined using the luciferase assays. After normalization to the luciferase activity determined in the corresponding cell lysates, the values of the ratio of VLP-incorporated to cell-associated luciferase activity were plotted versus the drug concentrations.
# Sf9 cell culture supernatants were clarified by low-speed centrifugation, then VLP recovered using a two-step procedure comprising a sucrose-step gradient centrifugation, followed by an ultracentrifugation in linear D2O-sucrose gradient, [53]. (i) In the first step, VLP contained in the cell culture medium were pelleted through a sucrose cushion (20%, w:v, in TNE buffer; TNE: 100 mM NaCl, 10 mM Tris-HCl pH 7.4, 1 mM Na2EDTA) at 30 krpm for 1 h at 15°C in a Kontron TST55.5 rotor [12]. Pelleted VLP of step (i) were then gently resuspended in PBS (0.20–0.25 ml), and (ii) further analyzed by isopycnic ultracentrifugation in sucrose-D2O gradients, [53]. Linear gradients (10-ml total volume, 30–50%, w:v) were centrifuged for 18 h at 28 krpm in a Beckman SW41 rotor. The 50% sucrose solution was made in D2O buffered to pH 7.2 with NaOH, and the 30% sucrose solution was made in 10 mM Tris-HCl, pH 7.2, 150 mM NaCl, 5.7 mM Na2EDTA. Aliquots of 0.5 ml were collected from the top, and fractions analyzed for protein content by SDS-PAGE and immunoblotting, and by luciferase assay as described below.
# Aliquots of Sf9 cells (10^6) were infected with two recombinant baculoviruses at equal multiplicity of infection (MOI of 10 PFU/cell, each). One expressed the HIV-1 Gag precursor (AcMNPV-Pr55Gag or control, p6-deleted AcMNPV-GagΔp6), the other the control Vpr protein (AcMNPV-Vpr) or the LucVpr fusion (AcMNPV-LucVpr). […] To avoid any interference with a possible effect of DMSO, DMSO was kept constant in volume in the different samples. […] Cells were harvested at 48 h pi, and extracellular VLP released in the culture medium were quantitated using luciferase assay. Membrane-enveloped VLP were pelleted and resuspended in lysis KDT buffer (KDT: 0.1 M potassium phosphate buffer, pH 7.8, 1 mM DTT, containing 0.2% Triton X100) for 30 min at 37°C with vortexing every 10 min. Luciferase activity associated with VLP was measured as previously described, using a Lumat LB-9501 luminometer (Berthold Technologies, Bad Wildbad, Germany). […] To compensate for eventual negative effects of drugs on LucVpr expression, the luciferase activity was measured in the corresponding cell lysates, obtained after lysis of the pelleted cells with KDT buffer. The results were expressed as relative light units (RLU) per µg protein. The values of the ratio of VLP-associated to intracellular luciferase activity were plotted versus the inhibitor concentration.
# MTT cytotoxicity assay = assay type: cell-based, Spodoptera frugiperda; settings: Spodoptera frugiperda, MTT assay, mean
# Method: (§1) The cellular toxicity of the different compounds was evaluated using the MTT assays. […] The selectivity index (SI) was defined as the CC50 to IC50 ratio.
# HIV-1 = settings: read-out: mean IC50, maturation cleavage of CAp24-SP1 / virus infectivity; cited from earlier work
# [1] = system: HIV-1 VLP assembly and budding; test: Electron microscopy of AcMNPV-Gag-infected Sf9 cells and released particles; assay type: cell-based; settings: 5 and 10 µg/ml for 24 h at 24 h pi
# Method: By contrast, control, untreated AcMNPV-Gag-infected Sf9 cells were decorated with VLP budding in abundance from the plasma membrane ( Fig. 8 , a; and also refer to [12], [28], [30], [32], [33], [53]).
# Baculovirus-infected Sf9 cells were harvested at 48 h pi, pelleted, fixed with 2.5% glutaraldehyde in 0.1 M phosphate buffer, pH 7.5, post-fixed with osmium tetroxide (2% in H2O) and treated with 0.5% tannic acid solution in H2O. The specimens were dehydrated and embedded in Epon (Epon-812; Fulham, Latham, NY). Ultrathin sections were stained with 2.6% alkaline lead citrate and 0.5% uranyl acetate in 50% ethanol, and post-stained with 0.5% uranyl acetate solution in H2O [12], [28], [53]. Grids were examined under a Jeol JEM-1400 electron microscope, equiped with an ORIUS™ digitalized camera (Gatan France, 78113-Grandchamp). For statistical EM analyses, a minimum of 30 grid squares containing 10 to 20 cell sections each were examined for counting VLP budding at the cell surface, or budding in intracellular vesicular compartment.
# Sf9 cells = test: MTT cytotoxicity assay; assay type: cell-based, Spodoptera frugiperda
# Method: as §1
# [2] = system: HIV-1 VLP assembly and budding; settings: cited from earlier work
# [3] = system: HIV-1 VLP assembly and budding; settings: 10 µg/ml (17 µM); AcMNPV-Gag-infected Sf9 cells; cited from earlier work
# [4] = read-out: IC50 (µM), 50% inhibitory activity on VLP assembly, Sf9 cells coexpressing Pr55Gag and LucVpr, drug added at 24 h pi for 24 h, mean
# [5] = read-out: IC50 (µg/ml), 50% inhibitory activity on VLP assembly, Sf9 cells coexpressing Pr55Gag and LucVpr, drug added at 24 h pi for 24 h, mean ± SEM, n = 4
Compound,IC50 (HIV-1 VLP assembly; [4]),IC50 (HIV-1 VLP assembly; [5]),SI (ratio CC50:IC50) (HIV-1 VLP assembly),CC50 (MTT cytotoxicity assay; Sf9 cells),other results
"C=C(C)[C@@H]1CC[C@]2(C(=O)O)CC[C@]3(C)[C@H](CC[C@@H]4[C@@]5(C)CC[C@H](O)C(C)(C)[C@@H]5CC[C@]43C)[C@@H]12 [BA, betulinic acid, reference compound]",39.4 µM,18 ± 3 µg/mL,1.1,,CC50 (MTT cytotoxicity assay): 43.8 µM
"C=C(C)[C@@H]1CC[C@]2(C(=O)NCCN)CC[C@]3(C)C(CCC4[C@@]5(C)CC[C@H](OC(=O)CC(C)(C)C(=O)O)C(C)(C)C5CC[C@]43C)C12 (some centres unmarked) [EP-39, ethylene diamine-conjugated DSB]",,,,120 µM,IC50 (HIV-1): 0.016 µM
"C=C(C)[C@@H]1CC[C@]2(C(=O)NC(CCCCNC(=O)OC(C)(C)C)C(=O)O)CC[C@]3(C)C(CCC4[C@@]5(C)CC[C@H](OC(=O)CC(C)(C)C(=O)O)C(C)(C)C5CC[C@]43C)C12 (some centres unmarked) [EP-47, ε-N-tert-butoxycarbonyl-lysine-conjugated DSB]",1.9 µM,1 to 2 µg/mL,13.0,24.7 µM,"IC50 (µg/ml), 50% inhibitory activity on VLP assembly (HIV-1 VLP assembly; Sf9 cells coexpressing Pr55Gag and LucVpr, drug added at 24 h pi for 24 h, mean ± SEM, n = 4): 1.6 ± 0.5 µg/mL; Effect on VLP assembly and budding (EM pattern) [1]: net inhibitory effect on VLP assembly and budding"
"C=C(C)[C@@H]1CC[C@]2(C(=O)NCCC(=O)O)CC[C@]3(C)C(CCC4[C@@]5(C)CC[C@H](OC(=O)CC(C)(C)C(=O)O)C(C)(C)C5CC[C@]43C)C12 (stereo partly drawn) [EP-48, beta-alanine-conjugated DSB]",,,,4.2 µM,Effect on VLP assembly (in words) (HIV-1 VLP assembly): no specific effect on VLP assembly; Cytotoxic effect (in words) (Sf9 cells): pronounced cytotoxic effect
"C=C(C)[C@@H]1CC[C@]2(C(=O)NC(CCCCN)C(=O)O)CC[C@]3(C)C(CCC4[C@@]5(C)CC[C@H](OC(=O)CC(C)(C)C(=O)O)C(C)(C)C5CC[C@]43C)C12 (some centres unmarked) [EP-62, lysine-conjugated DSB with free lysine ε-NH2 group]",4.8 µM,3.4 ± 0.4 µg/mL,0.7,3.5 µM,Effect on VLP assembly (in words) (HIV-1 VLP assembly): no specific effect on VLP assembly; Cytotoxic effect (in words) (Sf9 cells): pronounced cytotoxic effect
"C=C(C)[C@@H]1CC[C@]2(C(=O)O)CC[C@]3(C)[C@H](CC[C@@H]4[C@@]5(C)CC[C@H](OC(=O)CC(C)(C)C(=O)O)C(C)(C)[C@@H]5CC[C@]43C)[C@@H]12 [PA-457, 3-O-(3',3'-dimethylsuccinyl)-betulinic acid]",,,,,"IC50 ([2]; immuno-radiochemical assay of VLP): 8 to 10 µM; IC50 on assembly and budding of HIV-1 VLP ([2]; insect cells expressing Pr55Gag, previous study ref 12): 5 to 6 µg/mL; Effect on VLP budding and egress [3]: totally abolished VLP budding and egress"
"C=C(C)[C@@H]1CC[C@]2(C(=O)NCC(=O)O)CC[C@]3(C)C(CCC4[C@@]5(C)CC[C@H](OC(=O)CC(C)(C)C(=O)O)C(C)(C)C5CC[C@]43C)C12 (some centres unmarked) [ST-327, Glycine-conjugated DSB]",5.9 µM,3.8 ± 1.6 µg/mL,5.3,31.1 µM,Effect on VLP assembly and budding (EM pattern) [1]: net inhibitory effect on VLP assembly and budding
